How the values were obtained:
blood vessels in the CAM [1] = assay: chick chorioallantoic membrane assay (CAM), vasculature analysed with NIH ImageJ; format: in vivo, Brown Leghorn chicken embryos; conditions: for effect on vascular density (VD) compared to DMSO control / effect on vessel diameter compared to DMSO control / effect on vessel length density (VLD) compared to DMSO control / effect on branching compared to DMSO control: 24 h after administration
Experimental: (§1) At day 2, the egg was carefully cleaned with isopropanol again and a small opening was carved near its air sac through which approximately 3 mL of albumin was removed. The opening was sealed with medical tape and a larger square opening of approximately 1×1 cm was carved near the center of the egg using a Dremer Stylo+ tool. The egg was further cleaned in order to remove debris and the eggshell membrane was carefully removed using sterilized tweezers. The opening was sealed using clear tape and the eggs were incubated for four more days under the same conditions after disabling the auto-turning mechanism of the incubator.
(§2) The tape covering the opening in the egg was carefully removed and the disc was carefully placed on top of the chorioallantoic membrane (e.g., CAM) using sterilized tweezers, then the opening was resealed, and the eggs were placed again in the incubator.
(§3) The paper disc was carefully removed, and the CAM was photographed. For the Miles assay approximately 100 μl of a 1% w/v solution of Evans Blue dye was injected in the CAM and infiltration of the dye into the blood vessels was analyzed using an Andonstar digital microscope equipped with a 60× magnification lens. If the dye infiltrated the blood vessels the test was considered positive. The photographs were later cropped to include only the CAM and analyzed using the NIH ImageJ software package as follows.
To analyze the extent of branching the blood vessels were carefully traced in order for the ImageJ software to be able to distinguish them for the background. The traced images were opened on the ImageJ software, converted into an 8 bit image and the threshold was adjusted to exclude any possible background signal. This process gave a binary (black and white) map of the vasculature which was then skeletonized (converted into a 1 pixel wide map) and the skeleton was analyzed to determine the number of branches and junction voxels (pixels connected to more than 2 other pixels, i.e. pixels in which the map divides).
To analyze the vascular length density and vascular density the cropped image was opened on the ImageJ software, and the Mexican Hat filter plugin was applied using a radius of 5.0. After this, the image was made binary and the Vascular Density function of the Vessel Analysis plugin was used to determine both parameters after carefully tracing the image so that only the CAM area was included on the calculation.
To analyze the vessel the cropped image was opened on the ImageJ software, and the Mexican Hat filter plugin was applied using a radius of 5.0.

chicken embryos = format: in vivo, Brown Leghorn chicken embryos; set-up: embryo survival: unit of the concentration uncertain; conditions: for embryos that survived: 40 μM dose; for embryos that survived / embryo survival: 24 h; for embryo survival: 40 (unit uncertain) dose
Experimental: as §1, §2
The protocol included DMSO as a negative control and Razuprotafib as a positive control. The protocol also included the heptapeptide NLLMAAS as a negative control, which is an orthosteric antagonist of ANG-1.

[2] = system: chicken embryos exposed to CoCl2; assay: rescue of embryos administered a 100-fold lethal dose of hypoxia-inducing CoCl2; format: in vivo; conditions: CoCl2 1 M; 2.4 g/kg on Day 6
blood vessels in the CAM [3] = assay: Miles assay (Evans Blue) / vascular permeability in the CAM; set-up: species or system Brown Leghorn chicken embryos; conditions: in vivo
Experimental: as §3, with “After 24 hours, the tape was removed, and the opening was further expanded until all the possible area of the CAM was exposed. The paper” for “The paper”

[4] = single dose 40 μM (0.91 mg/kg) on Day 6, 24 h post dose

O=[N+]([O-])O[C@@H]1CO[C@H]2[C@@H]1OC[C@@H]2O [isosorbide, isosorbide mononitrate]
effect on vascular density (VD) compared to DMSO control (blood vessels in the CAM [1]; 40 μM): did not observe effects
effect on vessel diameter compared to DMSO control (blood vessels in the CAM [1]; 40 μM): did not observe effects
effect on vessel length density (VLD) compared to DMSO control (blood vessels in the CAM [1]; 40 μM): did not observe effects
embryos that survived (chicken embryos): Two out of three

CCOC(=O)C1=C(COCCN)NC(C)=C(C(=O)OC)C1c1ccccc1Cl (centres unmarked) [amlodipine]
embryos that survived (chicken embryos): Two out of three

COC(=O)N[C@@H](Cc1ccccc1)C(=O)N[C@@H](Cc1ccc(NS(=O)(=O)O)cc1)c1csc(-c2cccs2)n1 [Razuprotafib]
effect on branching compared to DMSO control (blood vessels in the CAM [1]; 40 μM): no changes were observed
effect on vascular density (VD) compared to DMSO control (blood vessels in the CAM [1]; 40 μM): no changes were observed
effect on vessel diameter compared to DMSO control (blood vessels in the CAM [1]; 40 μM): no changes were observed
effect on vessel length density (VLD) compared to DMSO control (blood vessels in the CAM [1]; 40 μM): no changes were observed
embryo survival (chicken embryos): almost all embryos

NLLMAAS [heptapeptide NLLMAAS, an orthosteric antagonist of ANG-1 (antiangiogenic), negative control]
effect on branching compared to DMSO control (blood vessels in the CAM [1]; 40 mM (1075 mg/Kg)): did not have any effects
effect on vascular density (VD) compared to DMSO control (blood vessels in the CAM [1]; 40 mM (1075 mg/Kg)): did not have any effects
effect on vessel diameter compared to DMSO control (blood vessels in the CAM [1]; 40 mM (1075 mg/Kg)): did not have any effects
effect on vessel length density (VLD) compared to DMSO control (blood vessels in the CAM [1]; 40 mM (1075 mg/Kg)): did not have any effects

COC(=O)[C@H](Cn1cncn1)NC(=O)[C@H](Cn1nnnc1C)NC(=O)[C@H](Cn1nnc2ccccc21)NC(=O)C(F)(F)F [Compound 1, methyl (S)-2-((S)-2-((S)-3-(1H-benzo[d][1,2,3]triazol-1-yl)-2-(2,2,2-trifluoroacetamido)propanamido)-3-(5-methyl-1H-tetrazol-1-yl)propanamido)-3-(1H-1,2,4-triazol-1-yl)propanoate]
aberrant angiogenesis or vascular remodeling (vessel density/branching mapping) (blood vessels in the CAM [1]; 40 μM): did not induce
time for which activity comparable to FDA approved vasodilators at 10 minutes was maintained (blood vessels in the CAM [1]; CAM): 24 h
decrease in vessel length density (VLD) compared with DMSO control (blood vessels in the CAM [1]; [4]): 17%
increase in vessel diameter compared with DMSO control (blood vessels in the CAM [1]; [4]): 124%
decrease in vessel length density (VLD) compared with DMSO control (blood vessels in the CAM [1]; single dose 40 μM (0.91 mg/kg) on Day 6, 24 h post dose, listed as Compound 2): 17%
embryos rescued from a 100-fold lethal dose of CoCl2 [2]: 25%
embryo survival (chicken embryos): almost all embryos
indications of hazardous tumor growth or teratogenic effects (chicken embryos; single (Day 6) dosing at 40 μM): no indications
mortality rates (chicken embryos; single (Day 6) dosing at 40 μM): not statistically significant
integrity of vessel cell walls (Miles assay) (blood vessels in the CAM [3]): did not weaken
vascular permeability (blood vessels in the CAM [3]): did not increase permeability

B1: ANG-1 protein: ANG-1 protein (Gibco) (protein, UniProt Q15389 16-498, looked up)
Angiopoietin-1: HIGCSNQRRSPENSGRRYNRIQHGQCAYTFILPEHDGNCRESTTDQYNTNALQRDAPHVEPDFSSQKLQHLEHVMENYTQWLQKLENYIVENMKSEMAQIQQNAVQNHTATMLEIGTSLLSQTAEQTRKLTDVETQVLNQTSRLEIQLLENSLSTYKLEKQLLQQTNEILKIHEKNSLLEHKILEMEGKHKEELDTLKEEKENLQGLVTRQTYIIQELEKQLNRATTNNSVLQKQQLELMDTVHNLVNLCTKEGVLLKGGKREEEKPFRDCADVYQAGFNKSGIYTIYINNMPEPKKVFCNMDVNGGGWTVIQHREDGSLDFQRGWKEYKMGFGNPSGEYWLGNEFIFAITSQRQYMLRIELMDWEGNRAYSQYDRFHIGNEKQNYRLYLKGHTGTAGKQSSLILHGADFSTKDADNDNCMCKCALMLTGGWWFDACGPSNLNGMFYTAGQNHGKLNGIKWHYFKGPSYSLRSTTMMIRPLDF
effects on CAM vasculature (vessel diameter, vessel length density) compared to DMSO controls (blood vessels in the CAM [1]; 0.75 mg/Kg (proteins 18.87 μM, antibody 1 mg/mL)): did not produce any effects significantly different

Reference: patent publication US20250333440A1, “Azole Tripeptides as Vasodilators” (University of Kansas, priority 2024, published 2025)
